Experimental data reported in patent US8143889B2, “Simultaneous acquisitions of spin- and stimulated-echo planar imaging” (University of Utah Research Foundation, priority 2009, dated 2012).

Columns and labels:
Assay type in all cases: physicochemical
[1] = T1 and turbo-FLASH signal intensity on phantom with different concentrations of Gd-BOPTA
Description: The results are plotted in FIG. 12. […] The dosage 0.1˜0.2 mM [PBCA]/kg is the routine dosage for DCE-MRI and local concentrations may easily exceed 0.2˜0.4 mM/kg in organs with high-blood supply or at the periphery of a tumor. The signal behavior of the gradient-echo MRI varies widely with the selection of TR, TE, and flipangle, and for T1. Although a set of these imaging parameters may be linear for a small range of PBCA concentrations and specific T1, it will not be linear for other T1 values. […] Thus, direct conversion of SI to the concentration is subject to large error, which will be propagated into the subsequent kinetic calculation. In contrast, the realtime T1 mapping provided by embodiments of the invention described above is linearly related to the PBCA concentration. Thus, the realtime T1 mapping provides accurate realtime estimation of the PBCA concentration resulting in improvement of the accuracy of drug-delivery or tumor evaluation.

[2] = T1 of MnCl2/water phantom by saturation-recovery spin-echo; conditions: 3 Tesla
Description: (§1) MRI studies were performed on a Siemens Trio 3 Tesla MRI system (Siemens Medical Solutions, Erlangen, Germany) with Avanto gradients (45 mT/m strength and 150 T/m/s slew rate). The pulse sequence was developed based on a singleshot spin-echo EPI sequence, using the IDEA pulse sequence development environment. Realtime calculation of T1 mapping was implemented into a custom-made ICE program (Image Construction Environment). The image construction program produced two magnitude images, two phase images, and a T1 map for each slice.
A phantom was constructed with four 20 cc plastic bottles filled with 0.05, 0.1, 0.2, and 0.4 mM MnCl2/water solutions, respectively, and immersed in jello in a rectangular acrylic container with dimensions 8×8×13 cm^3. The T1 of each concentration was 1.3, 0.9, 0.55, 0.35 sec for 0.05, 0.1, 0.2, 0.4 mM, respectively. T1 of the phantom was measured using saturation-recovery spin-echo.

[3] = T1 mapping of MnCl2/water phantom by inversion-recovery spin-echo (IR-SE) imaging and 2D ss-SGSTEPI; conditions: 3 Tesla
Description: as §1
A phantom was constructed with 4 plastic bottles filled with MnCl2/water solutions with concentrations of 0.05, 0.1, 0.2, and 0.4 mM, which were surrounded by jello. T1 mapping experiment was conducted using inversion-recovery spin-echo (IR-SE) imaging and 2D ss-SGSTEPI. T1 of each concentration of MnCl2/water solution were measured as 1.5, 0.89, 0.55, 0.35 sec for […], respectively.

| SMILES | T1 relaxation rate (1/T1) of the water proton vs. concentration ([1]; FIG. 12(b)) | signal intensities of turboFLASH and spin-EPI vs. concentration ([1]; TR/TE=7.2/2.7 ms, flipangle 30°, FIG. 12(a)) | T1 ([2]; 0.05 mM MnCl2/water solution) | T1 ([2]; 0.1 mM MnCl2/water solution) | T1 ([2]; 0.2 mM MnCl2/water solution) | T1 ([2]; 0.4 mM MnCl2/water solution) | T1 ([3]; 0.05 mM MnCl2/water solution) | T1 ([3]; 0.1 mM MnCl2/water solution) | T1 ([3]; 0.2 mM MnCl2/water solution) | T1 ([3]; 0.5 mM MnCl2/water solution) |
| --- | --- | --- | --- | --- | --- | --- | --- | --- | --- | --- |
| CNC[C@H](O)[C@@H](O)[C@H](O)[C@H](O)CO.CNC[C@H](O)[C@@H](O)[C@H](O)[C@H](O)CO.O=C([O-])CN(CCN(CC(=O)[O-])CC(=O)O)CCN(CC(=O)O)C(COCc1ccccc1)C(=O)[O-].[Gd+3] (stereo not shown) [Gd-BOPTA, Gadobenate dimeglumine] | very linear with the concentration | non-linear even at low concentration | – | – | – | – | – | – | – | – |
| [Cl][Mn][Cl] [MnCl2] | – | – | 1.3 s | 0.9 s | 0.55 s | 0.35 s | 1.5 s | 0.89 s | 0.55 s | 0.35 s |
